Source: patent US20100204244A1, “AGENTS FOR TREATMENT OF DIABETIC RETINOPATHY AND DRUSEN FORMATION IN MACULAR DEGENERATION” (ALCON INC., priority 2003, published 2010)

Legend:
[1] = system: Bovine retinal endothelial cells (BRECs); experiment: In vitro oxidant stress assay (MTS viable cell assay) in retinal endothelial cells exposed to t-butyl hydroperoxide; assay type: cell-based
Experimental: The present example provides a study wherein cultured retinal endothelial cells were exposed to an oxidant stress to evaluate the protective effects of pretreatment with quercetin. In addition, the present example provides an assay system for screening compounds for therapeutic activity in nonproliferative diabetic retinopathy.
Bovine retinal endothelial cells (BRECs) (VEC Technologies, Rensselaer, N.Y.) were grown on fibronectin ([…])-coated plasticware at 37° C. in 5% CO2 in MCDB-131 Complete media (VEC Technologies, Rensselaer, N.Y.). For serum-free media (SFM) conditions, MCDB-131 was used supplemented at 5 ml/500 ml with 100× antibiotic/antimycotic, 10 mM L-glutamine, and 0.1% BSA (all from Life Technologies Inc., Grand Island, N.Y.).
The BRECs were seeded at 10,000 cells/well and allowed to attach and grow for three days in 0.2 ml/well in complete media (10% fetal bovine serum (FBS)). The complete media was replaced with SFM for the next twenty-four hours at which time 25 μM quercetin, 100 μM DL-buthionine-(S,R)-sulfoximine (BSO, Sigma, St. Louis, Mo.), and the 0.1% DMSO were added. The next day all media was replaced with SFM (0.1 ml/well) containing 0-500 μM t-butyl hydroperoxide (ICN Biomedicals, Irvine, Calif.). After four hours incubation at 37° C. in 5% CO2 the assay was started by adding 20 μl of a mixture of twenty parts MTS (3-(4,5-dimethythiazol-2-yl)-5-(3-carboxymethoxyphenyl)-2-(4-sulfophenyl)-2H-tetrazolium, inner salt) and one part PMS (phenazine methosulfate) from the Promega ClelTiter 96® AQueous Non-Radioactive Cell Proliferation Assay kit (Promega Corporation, Madison, Wis.). The plates were returned to the incubator for three hours and then net absorbances at 490 nm, obtained by subtraction of a blank mean, were recorded and used as a measure of levels of viable cells.
Using six wells per condition, the assay was carried out three times. The absorbance values were normalized such that the control wells without t-butyl hydroperoxide equaled 100%, and data from the three assays were pooled. An overall statistical difference was found among treatment groups (see FIGURE; ANOVA, P<0.05).

[2] = system: experimentally induced diabetic rats; conditions: oral administration; cited from earlier work
[3] = system: cultured human RPE cells; conditions: cited from earlier work
[4] = system: γ-glutamylcysteine synthetase; conditions: cited from earlier work
[5] = system: phase II detoxification enzyme; conditions: human retinal pigment epithelial cells; cited from earlier work
[6] = system: quinone reductase, glutathione-S-transferase, and glutathione reductase; conditions: various cell lines including human adult retinal pigment epithelial cells; cited from earlier work

CCCCS(=N)(=O)CCC(N)C(=O)O (racemic) [BS, DL-buthionine-(S,R)-sulfoximine]
cell survival ([1]; 100 μM BSO pretreatment alone, no t-butyl hydroperoxide): no effect on cell survival | effect on toxicity of t-butyl hydroperoxide ([1]; 100 μM BSO pretreatment, all t-butyl hydroperoxide concentrations): significantly enhanced the toxicity

O=c1c(-c2ccc(O)cc2)coc2cc(O)cc(O)c12 [genistein]
retinal vascular leakage [2]: reduces retinal vascular leakage

Cc1c(-c2cnccn2)ssc1=S [oltipraz]
protection from chemical oxidants [3]: Protection of cultured human RPE cells from chemical oxidants

O=c1c(O)c(-c2ccc(O)c(O)c2)oc2cc(O)cc(O)c12 [quercetin]
numbers of viable cells (net absorbance at 490 nm, normalized to control without t-butyl hydroperoxide = 100%) ([1]; 25 μM quercetin pretreatment, then 0-500 μM t-butyl hydroperoxide 4 h, versus control group at each t-butyl hydroperoxide concentration): higher numbers of viable cells than in the control group | glutathione levels [4]: increase glutathione levels

C[S+]([O-])CCCCN=C=S (stereo not shown) [sulforaphane]
protection from chemical oxidants [3]: Protection of cultured human RPE cells from chemical oxidants | induction of a phase II detoxification enzyme [5]: induction of a phase II detoxification enzyme | enzyme induction [6]: induce quinone reductase, glutathione-S-transferase, and glutathione reductase

CC(C)(C)OO [t-butyl hydroperoxide]
cell survival ([1]; t-butyl hydroperoxide exposure 4 h, all concentrations up to 500 μM): significant reductions in cell survival
